Species: Rattus norvegicus
Assay: DrugMatrix - Regimen: Daily Repeat
Type: toxicity, organism-based, Sprague-Dawley
Parameters: regimen Daily Repeat, gender Male, age 6-8 weeks
Details: in vivo, po, route oral GAVAGE, vehicle .5 % CMC; for ABSOLUTE BASOPHIL / ABSOLUTE EOSINOPHIL / ABSOLUTE LYMPHOCYTE / ABSOLUTE MONOCYTE / ABSOLUTE SEGMENTED NEUTROPHIL / BASOPHIL / EOSINOPHIL / ERYTHROCYTE COUNT / HEMATOCRIT / HEMOGLOBIN / LEUKOCYTE COUNT / LYMPHOCYTE / MEAN CORPUSCULAR HEMOGLOBIN / MEAN CORPUSCULAR HEMOGLOBIN CONCENTRATION / MEAN CORPUSCULAR VOLUME / MONOCYTE / NEUTROPHIL / NUCLEATED RED BLOOD CELLS / PLATELET COUNT: tissue Blood; for ALANINE AMINOTRANSFERASE / ALBUMIN / ALKALINE PHOSPHATASE / ASPARTATE AMINOTRANSFERASE / BLOOD UREA NITROGEN / CARBON DIOXIDE / CHLORIDE / CHOLESTEROL / CREATINE PHOSPHOKINASE / CREATININE / GLUCOSE / LACTATE DEHYDROGENASE / LIPASE / PHOSPHORUS / POTASSIUM / SODIUM / TOTAL BILIRUBIN / TOTAL PROTEIN / URIC ACID: tissue Plasma
[1] = 100 mg/kg, 120 h, dose level Low, time 5 day
[2] = 2500 mg/kg, 72 h, dose level High, time 3 day
[3] = 2500 mg/kg, 120 h, dose level High, time 5 day

COC1=C(OC)C(=O)C(CCCCCCCCCCO)=C(C)C1=O [IDEBENONE]
ABSOLUTE BASOPHIL [1]: 0 CELLS/uL | ABSOLUTE EOSINOPHIL [1]: 0 CELLS/uL | ABSOLUTE LYMPHOCYTE [1]: 14055 CELLS/uL | ABSOLUTE MONOCYTE [1]: 144.33 CELLS/uL | ABSOLUTE SEGMENTED NEUTROPHIL [1]: 1000.67 CELLS/uL | BASOPHIL [1]: 0% | EOSINOPHIL [1]: 0% | ERYTHROCYTE COUNT [1]: 5.62 x10E6/uL | HEMATOCRIT [1]: 35.7% | HEMOGLOBIN [1]: 14.47 G/DL | LEUKOCYTE COUNT [1]: 15.2 x10E3/uL | LYMPHOCYTE [1]: 92.33% | MEAN CORPUSCULAR HEMOGLOBIN [1]: 25.8 pg | MEAN CORPUSCULAR HEMOGLOBIN CONCENTRATION [1]: 40.57 G/DL | MEAN CORPUSCULAR VOLUME [1]: 63.63 fL | MONOCYTE [1]: 1% | NEUTROPHIL [1]: 6.67% | NUCLEATED RED BLOOD CELLS [1]: 0.33 /100WBC | PLATELET COUNT [1]: 1018.67 x10E3/uL | ALANINE AMINOTRANSFERASE [1]: 63.67 u/L | ALBUMIN [1]: 4.47 G/DL | ALKALINE PHOSPHATASE [1]: 410 u/L | ASPARTATE AMINOTRANSFERASE [1]: 93 u/L | BLOOD UREA NITROGEN [1]: 16 mg/dL | CARBON DIOXIDE [1]: 32.33 mmol/L | CHLORIDE [1]: 102.67 MEQ/L | CHOLESTEROL [1]: 71.67 mg/dL | CREATINE PHOSPHOKINASE [1]: 369.33 u/L | CREATININE [1]: 0.13 mg/dL | GLUCOSE [1]: 152.33 mg/dL | LACTATE DEHYDROGENASE [1]: 136 u/L | LIPASE [1]: 10.33 u/L | PHOSPHORUS [1]: 11.63 mg/dL | POTASSIUM [1]: 6.29 MEQ/L | SODIUM [1]: 145.4 MEQ/L | TOTAL BILIRUBIN [1]: 0.13 mg/dL | TOTAL PROTEIN [1]: 6.13 G/DL | URIC ACID [1]: 1.03 mg/dL | ABSOLUTE BASOPHIL [2]: 0 CELLS/uL | ABSOLUTE EOSINOPHIL [2]: 0 CELLS/uL | ABSOLUTE LYMPHOCYTE [2]: 12762.67 CELLS/uL | ABSOLUTE MONOCYTE [2]: 85.33 CELLS/uL | ABSOLUTE SEGMENTED NEUTROPHIL [2]: 1385.33 CELLS/uL | BASOPHIL [2]: 0% | EOSINOPHIL [2]: 0% | ERYTHROCYTE COUNT [2]: 5.73 x10E6/uL | HEMATOCRIT [2]: 36.83% | HEMOGLOBIN [2]: 14 G/DL | LEUKOCYTE COUNT [2]: 14.23 x10E3/uL | LYMPHOCYTE [2]: 89.33% | MEAN CORPUSCULAR HEMOGLOBIN [2]: 24.43 pg | MEAN CORPUSCULAR HEMOGLOBIN CONCENTRATION [2]: 38 G/DL | MEAN CORPUSCULAR VOLUME [2]: 64.3 fL | MONOCYTE [2]: 0.67% | NEUTROPHIL [2]: 10% | NUCLEATED RED BLOOD CELLS [2]: 0.33 /100WBC | PLATELET COUNT [2]: 1207.33 x10E3/uL | ALANINE AMINOTRANSFERASE [2]: 63.67 u/L | ALBUMIN [2]: 4.23 G/DL | ALKALINE PHOSPHATASE [2]: 312.33 u/L | ASPARTATE AMINOTRANSFERASE [2]: 80.67 u/L | BLOOD UREA NITROGEN [2]: 13.67 mg/dL | CARBON DIOXIDE [2]: 32.33 mmol/L | CHLORIDE [2]: 103.67 MEQ/L | CHOLESTEROL [2]: 71.33 mg/dL | CREATINE PHOSPHOKINASE [2]: 242.67 u/L | CREATININE [2]: 0.15 mg/dL | GLUCOSE [2]: 157.67 mg/dL | LACTATE DEHYDROGENASE [2]: 80.67 u/L | LIPASE [2]: 11 u/L | PHOSPHORUS [2]: 10.1 mg/dL | POTASSIUM [2]: 6.3 MEQ/L | SODIUM [2]: 144.83 MEQ/L | TOTAL BILIRUBIN [2]: 0.17 mg/dL | TOTAL PROTEIN [2]: 5.33 G/DL | URIC ACID [2]: 1.27 mg/dL | ABSOLUTE BASOPHIL [3]: 0 CELLS/uL | ABSOLUTE EOSINOPHIL [3]: 79.33 CELLS/uL | ABSOLUTE LYMPHOCYTE [3]: 11851 CELLS/uL | ABSOLUTE MONOCYTE [3]: 40.67 CELLS/uL | ABSOLUTE SEGMENTED NEUTROPHIL [3]: 1262.33 CELLS/uL | BASOPHIL [3]: 0% | EOSINOPHIL [3]: 0.67% | ERYTHROCYTE COUNT [3]: 5.54 x10E6/uL | HEMATOCRIT [3]: 33.87% | HEMOGLOBIN [3]: 13.77 G/DL | LEUKOCYTE COUNT [3]: 13.23 x10E3/uL | LYMPHOCYTE [3]: 89.33% | MEAN CORPUSCULAR HEMOGLOBIN [3]: 24.87 pg | MEAN CORPUSCULAR HEMOGLOBIN CONCENTRATION [3]: 40.67 G/DL | MEAN CORPUSCULAR VOLUME [3]: 61.17 fL | MONOCYTE [3]: 0.33% | NEUTROPHIL [3]: 9.67% | NUCLEATED RED BLOOD CELLS [3]: 0 /100WBC | PLATELET COUNT [3]: 1402 x10E3/uL | ALANINE AMINOTRANSFERASE [3]: 63 u/L | ALBUMIN [3]: 4.47 G/DL | ALKALINE PHOSPHATASE [3]: 280.33 u/L | ASPARTATE AMINOTRANSFERASE [3]: 108 u/L | BLOOD UREA NITROGEN [3]: 18.33 mg/dL | CARBON DIOXIDE [3]: 30 mmol/L | CHLORIDE [3]: 101.33 MEQ/L | CHOLESTEROL [3]: 63.33 mg/dL | CREATINE PHOSPHOKINASE [3]: 512 u/L | CREATININE [3]: 0.19 mg/dL | GLUCOSE [3]: 146.67 mg/dL | LACTATE DEHYDROGENASE [3]: 149.33 u/L | LIPASE [3]: 8.67 u/L | PHOSPHORUS [3]: 9.97 mg/dL | POTASSIUM [3]: 6.03 MEQ/L | SODIUM [3]: 145.03 MEQ/L | TOTAL BILIRUBIN [3]: 0.23 mg/dL | TOTAL PROTEIN [3]: 6.1 G/DL | URIC ACID [3]: 0.9 mg/dL
